Experimental data: patent US10344060B2 (priority 2013, dated 2019)

biological target: hNav1.4 (Homo sapiens, UniProt P35499); test: cell-based; format: cell-based; conditions: Table 12; ratio of PX tonic IC50 values
Sequence (P35499 whole entry): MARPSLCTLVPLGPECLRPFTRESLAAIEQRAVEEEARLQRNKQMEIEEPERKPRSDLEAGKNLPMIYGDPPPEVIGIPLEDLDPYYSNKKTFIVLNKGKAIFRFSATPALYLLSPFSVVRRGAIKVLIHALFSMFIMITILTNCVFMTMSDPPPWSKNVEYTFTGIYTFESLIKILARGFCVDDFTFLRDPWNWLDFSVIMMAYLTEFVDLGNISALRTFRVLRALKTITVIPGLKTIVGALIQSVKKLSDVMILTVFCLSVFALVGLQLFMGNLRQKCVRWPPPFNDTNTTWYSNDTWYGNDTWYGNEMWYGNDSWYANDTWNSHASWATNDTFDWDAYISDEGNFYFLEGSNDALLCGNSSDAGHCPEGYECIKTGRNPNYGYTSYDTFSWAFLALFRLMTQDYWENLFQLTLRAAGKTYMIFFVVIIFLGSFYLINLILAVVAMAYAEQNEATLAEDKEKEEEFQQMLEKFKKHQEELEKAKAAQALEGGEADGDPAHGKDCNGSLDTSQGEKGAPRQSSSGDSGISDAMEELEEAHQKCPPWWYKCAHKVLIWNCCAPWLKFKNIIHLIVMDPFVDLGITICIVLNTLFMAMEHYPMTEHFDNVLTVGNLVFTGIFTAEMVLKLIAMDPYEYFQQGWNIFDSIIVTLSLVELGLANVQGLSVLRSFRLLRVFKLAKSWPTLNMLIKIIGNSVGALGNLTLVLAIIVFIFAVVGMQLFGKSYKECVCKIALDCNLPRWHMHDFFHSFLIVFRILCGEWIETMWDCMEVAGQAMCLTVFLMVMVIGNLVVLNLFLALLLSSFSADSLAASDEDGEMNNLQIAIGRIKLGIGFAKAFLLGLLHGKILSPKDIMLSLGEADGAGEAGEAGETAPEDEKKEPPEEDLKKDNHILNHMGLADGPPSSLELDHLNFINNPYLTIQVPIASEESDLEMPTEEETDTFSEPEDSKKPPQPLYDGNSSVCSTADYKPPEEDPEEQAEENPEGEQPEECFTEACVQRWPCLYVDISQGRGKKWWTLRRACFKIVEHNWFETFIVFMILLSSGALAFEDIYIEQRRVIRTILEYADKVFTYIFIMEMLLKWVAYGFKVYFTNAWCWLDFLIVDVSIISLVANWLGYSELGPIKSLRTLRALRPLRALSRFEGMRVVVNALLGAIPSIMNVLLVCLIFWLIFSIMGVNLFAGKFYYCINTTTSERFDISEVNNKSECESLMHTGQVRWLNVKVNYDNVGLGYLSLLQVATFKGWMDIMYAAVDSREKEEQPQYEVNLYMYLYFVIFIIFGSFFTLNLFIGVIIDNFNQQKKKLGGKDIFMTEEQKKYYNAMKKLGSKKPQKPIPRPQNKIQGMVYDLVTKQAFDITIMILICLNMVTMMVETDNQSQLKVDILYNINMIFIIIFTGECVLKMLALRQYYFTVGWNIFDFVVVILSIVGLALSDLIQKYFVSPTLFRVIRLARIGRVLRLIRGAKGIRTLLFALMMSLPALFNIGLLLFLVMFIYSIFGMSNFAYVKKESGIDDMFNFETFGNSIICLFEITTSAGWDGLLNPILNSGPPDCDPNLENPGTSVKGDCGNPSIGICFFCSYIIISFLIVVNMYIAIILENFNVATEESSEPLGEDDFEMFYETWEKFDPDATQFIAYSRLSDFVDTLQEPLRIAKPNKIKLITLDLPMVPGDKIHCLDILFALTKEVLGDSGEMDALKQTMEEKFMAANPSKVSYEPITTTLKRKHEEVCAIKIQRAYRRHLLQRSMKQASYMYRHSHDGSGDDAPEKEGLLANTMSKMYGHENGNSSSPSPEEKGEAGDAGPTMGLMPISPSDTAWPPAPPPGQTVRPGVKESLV

Going from `C#CC[C@H](N)C(=O)NCCCC[C@@H]1NC(=O)[C@H](CCCNC(=N)N)NC(=O)[C@H](CCCCN)NC(=O)[C@H](CO)NC(=O)[C@H](CC(=O)O)NC(=O)[C@@H]2CSSC[C@@H]3NC(=O)[C@H](CCC(=O)O)NC(=O)[C@H](CC(C)C)NC(=O)CNC(=O)[C@H](CCC(=O)O)NC(=O)[C@H](CSSC[C@H](NC(=O)[C@H](Cc4ccc(O)cc4)NC(=O)[C@@H](N)CC#N)C(=O)N[C@@H](CCC(N)=O)C(=O)N[C@@H](CCCCN)C(=O)N[C@@H](Cc4c[nH]c5ccccc45)C(=O)N[C@@H](CCCC)C(=O)N[C@@H](Cc4c[nH]c5ccccc45)C(=O)N[C@@H]([C@@H](C)O)C(=O)N2)NC(=O)[C@H](CSSC[C@@H](C(=O)N[C@@H](CCCNC(=N)N)C(=O)N[C@@H](CCCCN)C(=O)N[C@@H](Cc2ccc(O)cc2)C(=O)N[C@H](C(N)=O)[C@@H](C)CC)NC(=O)[C@H](Cc2c[nH]c4ccccc24)NC(=O)[C@H](CC(C)C)NC(=O)[C@H](CCCCN)NC3=O)NC1=O` [compound 394] to `C#CC[C@@H]1NC(=O)[C@@H]2CSSC[C@H](NC(=O)[C@H](Cc3ccc(O)cc3)NC(=O)[C@@H](N)CC#N)C(=O)N[C@@H](CCC(N)=O)C(=O)N[C@@H](CCCCN)C(=O)N[C@@H](Cc3c[nH]c4ccccc34)C(=O)N[C@@H](CCCC)C(=O)N[C@@H](Cc3c[nH]c4ccccc34)C(=O)N[C@@H]([C@@H](C)O)C(=O)N[C@H]3CSSC[C@H](NC(=O)[C@H](CCC(=O)O)NC(=O)[C@H](CC(C)C)NC(=O)CNC1=O)C(=O)N[C@@H](CCCCN)C(=O)N[C@@H](CC(C)C)C(=O)N[C@@H](Cc1c[nH]c4ccccc14)C(=O)N[C@H](C(=O)N[C@@H](CCCNC(=N)N)C(=O)N[C@@H](CCCCN)C(=O)N[C@@H](Cc1ccc(O)cc1)C(=O)N[C@H](C(N)=O)[C@@H](C)CC)CSSC[C@H](NC(=O)[C@H](C)NC(=O)[C@H](CCCNC(=N)N)NC(=O)[C@H](CCCCN)NC(=O)[C@H](CO)NC(=O)[C@H](CC(=O)O)NC3=O)C(=O)N2` [compound 397], the Nav1.4/Nav1.7 falls from 19130 to 20.

Work on `C#CC[C@H](N)C(=O)NCCOCCOCCOCCOCCC(=O)NCCCC[C@@H]1NC(=O)[C@H](CCCNC(=N)N)NC(=O)[C@H](CCCCN)NC(=O)[C@H](CO)NC(=O)[C@H](CC(=O)O)NC(=O)[C@@H]2CSSC[C@@H]3NC(=O)[C@H](CCCNC(=N)N)NC(=O)[C@H](CC(C)C)NC(=O)CNC(=O)[C@H](CCC(=O)O)NC(=O)[C@H](CSSC[C@H](NC(=O)[C@H](Cc4ccc(O)cc4)NC(=O)[C@@H](N)CCC)C(=O)N[C@@H](CCC(N)=O)C(=O)N[C@@H](CCCCN)C(=O)N[C@@H](Cc4c[nH]c5ccccc45)C(=O)N[C@@H](CCCC)C(=O)N[C@@H](Cc4c[nH]c5ccccc45)C(=O)N[C@@H]([C@@H](C)O)C(=O)N2)NC(=O)[C@H](CSSC[C@@H](C(=O)N[C@@H](CCCNC(=N)N)C(=O)N[C@@H](CCCCN)C(=O)N[C@H](C(=O)N[C@H](C(N)=O)[C@@H](C)CC)[C@@H](C)CC)NC(=O)[C@H](Cc2c[nH]c4ccccc24)NC(=O)[C@H](CC(C)C)NC(=O)[C@H](CCCCN)NC3=O)NC1=O` [compound 432] yielded a Nav1.4/Nav1.7 of 12.

same assay, conditions: Table 13; ratio of PX tonic IC50 values

First: CCCC[C@@H]1NC(=O)[C@H](Cc2c[nH]c3ccccc23)NC(=O)[C@H](CCCCN)NC(=O)[C@H](CCC(N)=O)NC(=O)[C@@H](NC(=O)[C@H](Cc2ccc(O)cc2)NC(=O)[C@@H](N)Cc2cn(CCOCCOCCOCCOCCOCCOCCOCCOCCOCCOCCOCCOCCOCCOCCOCCOCCOCCOCCOCCOCCOCCOCCOCCNC(=O)c3cc(CN)cc(C(=O)NCCOCCOCCOCCOCCOCCOCCOCCOCCOCCOCCOCCOCCOCCOCCOCCOCCOCCOCCOCCOCCOCCOCCOCCn4cc(C[C@H](N)C(=O)N[C@@H](Cc5ccc(O)cc5)C(=O)N[C@H]5CSSC[C@@H]6NC(=O)[C@@H]7CSSC[C@@H](C(=O)N[C@@H](CCCNC(=N)N)C(=O)N[C@@H](CCCCN)C(=O)N[C@@H](CCC(=O)O)C(=O)N[C@H](C(N)=O)[C@@H](C)CC)NC(=O)[C@H](Cc8c[nH]c9ccccc89)NC(=O)[C@H](CC(C)C)NC(=O)[C@H](CCCCN)NC(=O)[C@H](CSSC[C@H](NC(=O)[C@H]([C@@H](C)O)NC(=O)[C@H](Cc8c[nH]c9ccccc89)NC(=O)[C@H](CCCC)NC(=O)[C@H](Cc8c[nH]c9ccccc89)NC(=O)[C@H](CCCCN)NC(=O)[C@H](CCC(N)=O)NC5=O)C(=O)N[C@@H](CC(=O)O)C(=O)N[C@@H](CO)C(=O)N[C@@H](CCCCN)C(=O)N[C@@H](CCCNC(=N)N)C(=O)N[C@@H](C)C(=O)N7)NC(=O)[C@H](CCCNC(=N)N)NC(=O)[C@H](CC(C)C)NC(=O)CNC(=O)[C@H](CCC(=O)O)NC6=O)nn4)c3)nn2)CSSC[C@@H]2NC(=O)[C@@H]3CSSC[C@@H](C(=O)N[C@@H](CCCNC(=N)N)C(=O)N[C@@H](CCCCN)C(=O)N[C@@H](CCC(=O)O)C(=O)N[C@H](C(N)=O)[C@@H](C)CC)NC(=O)[C@H](Cc4c[nH]c5ccccc45)NC(=O)[C@H](CC(C)C)NC(=O)[C@H](CCCCN)NC(=O)[C@H](CSSC[C@H](NC(=O)[C@H]([C@@H](C)O)NC(=O)[C@H](Cc4c[nH]c5ccccc45)NC1=O)C(=O)N[C@@H](CC(=O)O)C(=O)N[C@@H](CO)C(=O)N[C@@H](CCCCN)C(=O)N[C@@H](CCCNC(=N)N)C(=O)N[C@@H](C)C(=O)N3)NC(=O)[C@H](CCCNC(=N)N)NC(=O)[C@H](CC(C)C)NC(=O)CNC(=O)[C@H](CCC(=O)O)NC2=O [Homodimeric Conjugate No. 7]
Second: CCCC[C@@H]1NC(=O)[C@H](Cc2c[nH]c3ccccc23)NC(=O)[C@H](CCCCN)NC(=O)[C@H](CCC(N)=O)NC(=O)[C@@H](NC(=O)[C@@H](N)Cc2ccc(O)cc2)CSSC[C@@H]2NC(=O)[C@@H]3CSSC[C@@H](C(=O)N[C@@H](CCCNC(=N)N)C(=O)N[C@@H](CCCCN)C(=O)N[C@@H](CCC(=O)O)C(=O)N[C@H](C(N)=O)[C@@H](C)CC)NC(=O)[C@H](Cc4c[nH]c5ccccc45)NC(=O)[C@H](CC(C)C)NC(=O)[C@H](CCCCN)NC(=O)[C@H](CSSC[C@H](NC(=O)[C@H]([C@@H](C)O)NC(=O)[C@H](Cc4c[nH]c5ccccc45)NC1=O)C(=O)N[C@@H](CC(=O)O)C(=O)N[C@@H](CO)C(=O)N[C@@H](CCCCN)C(=O)N[C@@H](CCCNC(=N)N)C(=O)N[C@@H](C)C(=O)N3)NC(=O)[C@H](CCCNC(=N)N)NC(=O)[C@H](CC(C)C)NC(=O)CNC(=O)[C@H](Cc1cn(CCCOCCOCCOCCOCCOCCOCCOCCOCCOCCOCCN)nn1)NC2=O [compound 406]
The Nav1.4/Nav1.7 of the first is higher: 94 for the first, 11 for the second.

Work on `CCCC[C@@H]1NC(=O)[C@H](Cc2c[nH]c3ccccc23)NC(=O)[C@H](CCCCN)NC(=O)[C@H](CCC(N)=O)NC(=O)[C@@H](NC(=O)[C@@H](N)Cc2cn(CCCOCCOCCOCCOCCOCCOCCOCCOCCOCCOCCN)nn2)CSSC[C@@H]2NC(=O)[C@@H]3CSSC[C@@H](C(=O)N[C@@H](CCCNC(=N)N)C(=O)N[C@@H](CCCCN)C(=O)N[C@H](C(=O)N[C@H](C(N)=O)[C@@H](C)CC)[C@@H](C)CC)NC(=O)[C@H](Cc4c[nH]c5ccccc45)NC(=O)[C@H](CC(C)C)NC(=O)[C@H](CCCCN)NC(=O)[C@H](CSSC[C@H](NC(=O)[C@H]([C@@H](C)O)NC(=O)[C@H](Cc4c[nH]c5ccccc45)NC1=O)C(=O)N[C@@H](CC(=O)O)C(=O)N[C@@H](CO)C(=O)N[C@@H](CCCCN)C(=O)N[C@@H](CCCNC(=N)N)C(=O)N[C@@H](C)C(=O)N3)NC(=O)[C@H](CCC(=O)O)NC(=O)[C@H](CC(C)C)NC(=O)CNC(=O)[C@H](CCC(=O)O)NC2=O` [compound 407] yielded a Nav1.4/Nav1.7 of 85.
